Experimental data published in US20250074871A1, “PHENETHYLAMINES AND METHODS OF PREPARATION THEREOF” (priority 2022, published 2025).
Like-named read-outs stand apart in the source and are kept apart here.

Key:
Type in all cases: cell-based
5-HT2A receptor = molecular target: T1, 5-HT2A receptor (Homo sapiens, UniProt P28223); assay: 5-HT2A Gq dissociation BRET functional assay; conditions: Table 2; for EC50: at least three replicate trials; for 5-HT2A BRET Eff %: normalized to % 5-HT stimulation
T1 construct: expressed in transfected cells; host or cells: HEK293T

5-HT2B receptor = molecular target: T2, 5-HT2B receptor (Homo sapiens, UniProt P41595); assay: 5-HT2B Gq dissociation BRET functional assay; conditions: Table 2; for EC50: at least three replicate trials; for 5-HT2B BRET Eff %: normalized to % 5-HT stimulation
T2 construct: expressed in transfected cells; host or cells: HEK293T

5-HT2C receptor = molecular target: T3, 5-HT2C receptor (Homo sapiens, UniProt P28335); assay: cell-based; conditions: Table 2; for EC50: at least three replicate trials, read-out: 5-HT2C BRET EC50; for 5-HT2C BRET Eff %: normalized to % 5-HT stimulation
T3 construct: expressed in transfected cells; host or cells: HEK293T
T3 sequence (P28335 33-458): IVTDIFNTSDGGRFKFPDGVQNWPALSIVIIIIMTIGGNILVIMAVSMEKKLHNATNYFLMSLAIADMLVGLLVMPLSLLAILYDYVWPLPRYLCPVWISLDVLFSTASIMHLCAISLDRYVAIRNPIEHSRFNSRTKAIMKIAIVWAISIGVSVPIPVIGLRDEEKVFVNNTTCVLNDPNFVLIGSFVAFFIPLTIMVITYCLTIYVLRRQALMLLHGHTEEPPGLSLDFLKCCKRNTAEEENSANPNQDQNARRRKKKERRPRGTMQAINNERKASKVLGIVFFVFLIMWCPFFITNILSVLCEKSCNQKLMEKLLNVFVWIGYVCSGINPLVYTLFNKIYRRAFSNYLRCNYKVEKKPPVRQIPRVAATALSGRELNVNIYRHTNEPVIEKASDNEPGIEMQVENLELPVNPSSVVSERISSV

T1 sequence (P28223 whole entry): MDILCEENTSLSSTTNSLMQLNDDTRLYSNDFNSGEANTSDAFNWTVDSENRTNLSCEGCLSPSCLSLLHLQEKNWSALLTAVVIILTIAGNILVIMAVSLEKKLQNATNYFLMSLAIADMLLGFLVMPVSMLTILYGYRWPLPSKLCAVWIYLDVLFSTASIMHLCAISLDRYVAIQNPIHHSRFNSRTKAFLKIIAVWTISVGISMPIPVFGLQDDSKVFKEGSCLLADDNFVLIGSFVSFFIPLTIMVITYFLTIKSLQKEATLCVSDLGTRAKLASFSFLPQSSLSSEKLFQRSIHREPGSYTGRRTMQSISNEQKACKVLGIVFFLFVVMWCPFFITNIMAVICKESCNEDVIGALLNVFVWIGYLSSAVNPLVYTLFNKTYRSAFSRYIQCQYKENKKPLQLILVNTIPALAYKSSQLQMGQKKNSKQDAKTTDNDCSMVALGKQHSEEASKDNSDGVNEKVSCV
T2 sequence (P41595 whole entry): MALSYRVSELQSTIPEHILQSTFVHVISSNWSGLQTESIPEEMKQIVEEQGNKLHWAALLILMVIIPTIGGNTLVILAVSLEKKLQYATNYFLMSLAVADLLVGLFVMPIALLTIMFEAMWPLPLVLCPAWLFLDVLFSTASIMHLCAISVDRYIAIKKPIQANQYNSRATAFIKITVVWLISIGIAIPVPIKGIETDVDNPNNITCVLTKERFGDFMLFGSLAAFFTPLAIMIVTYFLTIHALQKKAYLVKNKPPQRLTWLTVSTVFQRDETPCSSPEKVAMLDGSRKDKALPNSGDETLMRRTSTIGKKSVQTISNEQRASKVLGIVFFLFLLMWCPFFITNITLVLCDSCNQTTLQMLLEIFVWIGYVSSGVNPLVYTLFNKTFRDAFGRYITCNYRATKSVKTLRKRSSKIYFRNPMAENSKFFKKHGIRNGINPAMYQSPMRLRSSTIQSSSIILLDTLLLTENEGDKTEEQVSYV

Row | Compound | EC50 (5-HT2A receptor; read-out: 5-HT2A BRET EC50) | 5-HT2A BRET Eff % (5-HT2A receptor) | 5-HT2B BRET EC50 (nM) / Eff % (5-HT2B receptor) | EC50 (5-HT2C receptor) | 5-HT2C BRET Eff % (5-HT2C receptor) | EC50 (5-HT2A receptor; 5-HT2A BRET EC50 (nM)) | EC50 (5-HT2B receptor; 5-HT2B BRET EC50 (nM)) | 5-HT2B BRET Eff % (5-HT2B receptor) | EC50 (5-HT2B receptor; read-out: 5-HT2B BRET EC50) | 5-HT2C BRET EC50 (nM) / Eff % (merged cell, word) (5-HT2C receptor)
1 | N#Cc1ccc(CCNCc2ccsc2Cl)c(O)c1 [Cpd #139] | 1260 nM | 80% | Inactive | 4670 nM | 91% |  |  |  |  | 
2 | COc1cc(C#N)ccc1CCNCc1ccccc1F [Cpd #6] |  | 81% | Inactive | 2120 nM | 130% | 381 nM |  |  |  | 
3 | COc1cc(C#N)ccc1CCNCc1cccc2ncn(C)c12 [Cpd #73] | 73 nM | 4% | Inactive | 0.04 nM | 7% |  |  |  |  | 
4 | N#Cc1cc(O)c(CCNCc2ccccc2O)cc1F [Cpd #129] |  | 95% |  | 67 nM | 105% | 7.8 nM | 249 nM | 62% |  | 
5 | N#Cc1ccc(CCNCc2ccccc2O)c(C(F)(F)F)c1 [Cpd #137] |  | 89% | Inactive | 56.5 nM | 83% | 312 nM |  |  |  | 
6 | CSc1ccccc1CNCCCc1ccc(C#N)cc1O [Cpd #136] | 1380 nM | 55% |  | 412 nM | 43% |  |  | 49% | 7330 nM | 
7 | COc1cc(C#N)c(F)cc1CCNCc1ccccc1O [Cpd #4] |  | 99% |  | 37.5 nM | 115% | 2.4 nM | 4090 nM | 73% |  | 
8 | COc1ccc(CNCCc2ccc(C#N)cc2OC)cc1 [Cpd #29] |  | 59% | Inactive | 924 nM | 75% | 3950 nM |  |  |  | 
9 | Cc1ccc(CCNCc2cccc3c2OCO3)c(O)c1 [Cpd #132] |  | 70% | Inactive | 770 nM | 84% | 49 nM |  |  |  | 
10 | N#Cc1ccc(CCNCc2cccc3ccsc23)c(O)c1 [Cpd #70] | 0.3 nM | 11% | Inactive | 5400 nM | 160% |  |  |  |  | 
11 | N#Cc1ccc(CCNCc2cccc3cc[nH]c23)c(O)c1 [Cpd #71] | 1140 nM | 59% | Inactive | 10700 nM | 92% |  |  |  |  | 
12 | COc1cc(-c2ncccn2)ccc1CCNCc1ccccc1Cl [Cpd #104] | 4890 nM | 71% | Inactive | 5690 nM | 106% |  |  |  |  | 
13 | CSc1ccccc1CNCCc1ccc(O)cc1O [Cpd #120] | 518 nM | 90% | Inactive |  |  |  |  |  |  | Inactive
14 | CCCCCc1ccc(CCNCc2ccccc2O)c(OC)c1 [Cpd #125] |  | 96% | Inactive | 55.8 nM | 105% | 13.5 nM |  |  |  | 
15 | Oc1cc(C(F)(F)F)ccc1CCNCc1ccccc1O [Cpd #116] |  | 89% | Inactive | 1.7 nM | 100% | 1 nM |  |  |  | 
16 | COc1cc(C#N)ccc1CCNCc1cccc(F)c1 [Cpd #7] |  | 84% | Inactive | 800 nM | 126% | 133 nM |  |  |  | 
17 | COc1cc(C#N)ccc1CCNCc1ccc(Cl)cc1 [Cpd #14] |  | 40% | Inactive | 13300 nM | 74% | 14300 nM |  |  |  | 
18 | CSc1ccc(CCNCc2ccccc2SC)c(O)c1 [Cpd #121] |  | 94% |  | 44.1 nM | 110% | 3.6 nM | 175 nM | 89% |  | 
19 | COc1cc(C#N)ccc1CCNCc1ccccc1O [Cpd #113] |  | 90% |  | 30.3 nM | 102% | 4.9 nM | 1290 nM | 34% |  | 
20 | COc1cc(C#N)ccc1CCNCc1ccc(F)cc1F [Cpd #59] |  | 58% | Inactive | 9930 nM | 94% | 14100 nM |  |  |  | 
21 | COc1cc(-c2ncco2)ccc1CCNCc1ccccc1Cl [Cpd #102] | 2090 nM | 61% |  | 1640 nM | 101% |  |  | 143% | 5370 nM | 
22 | CSc1ccccc1CCNCCc1ccc(C#N)cc1O [Cpd #134] | 384 nM | 67% |  | 160 nM | 87% |  |  | 85% | 620 nM | 
